Patent US20240287076A1, “COMPOUNDS FOR TARGETING DEGRADATION OF BRUTON'S TYROSINE KINASE” (BIOGEN MA INC., priority 2021, published 2024)

target: T1, BTK (Homo sapiens, UniProt Q06187); experiment: BTK degradation assay using the HiBiT Method (Nano-Glo HiBiT Lytic Assay, GM01501.3 cells); assay type: cell-based; details: HiBiT Degradation on GM01501.3 BTK @ 6 hours
T1 construct: The GM01501.3 cell line endogenously expresses BTK with a HiBiT fusion tag via CRISPR knock-in at its C-terminal region; endogenous in cells; host or cells: GM01501.3 (GM01501 cells engineered by CRISPR knock-in of HiBiT at the BTK locus)
Outline: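 Degradation read-out: HiBiT luminescence after lytic reagent addition, giving DC50. Compounds dosed from 10 μM in 11 half-log steps (duplicate) onto GM01501.3 cells, whose endogenous BTK carries a C-terminal HiBiT knock-in tag; 6 h exposure, 37 °C, 5% CO2.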

T1 sequence (Q06187 whole entry, the tested form may be a part): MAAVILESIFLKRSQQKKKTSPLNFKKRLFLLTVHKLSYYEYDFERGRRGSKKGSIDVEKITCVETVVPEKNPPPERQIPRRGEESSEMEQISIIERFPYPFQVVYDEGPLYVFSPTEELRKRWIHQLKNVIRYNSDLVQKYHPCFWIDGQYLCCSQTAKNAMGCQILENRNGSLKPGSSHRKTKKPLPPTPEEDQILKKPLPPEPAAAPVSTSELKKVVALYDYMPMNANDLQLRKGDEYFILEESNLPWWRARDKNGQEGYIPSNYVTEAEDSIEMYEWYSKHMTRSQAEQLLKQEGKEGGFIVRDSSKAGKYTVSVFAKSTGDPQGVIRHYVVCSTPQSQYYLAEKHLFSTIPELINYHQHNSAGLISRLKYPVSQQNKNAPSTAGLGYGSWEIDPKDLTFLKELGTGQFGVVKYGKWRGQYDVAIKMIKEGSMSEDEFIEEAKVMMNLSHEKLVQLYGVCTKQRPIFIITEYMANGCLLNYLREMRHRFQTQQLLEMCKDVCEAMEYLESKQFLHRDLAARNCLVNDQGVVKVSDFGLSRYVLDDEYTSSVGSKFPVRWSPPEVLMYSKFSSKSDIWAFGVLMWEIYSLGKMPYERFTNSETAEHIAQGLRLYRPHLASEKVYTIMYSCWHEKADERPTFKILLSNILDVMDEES

| SMILES | DC50 |
| --- | --- |
| Cc1cc(-c2ncnn3cc(-c4ccc(COCCCc5ccc(NC6CCC(=O)NC6=O)cc5)cc4)cc23)ccc1CNC(=O)c1noc(C(C)(C)C)n1 (stereo not shown) [Example 147, 5-tert-butyl-N-[[4-[6-[4-[3-[4-[(2,6-dioxo-3-piperidyl)amino]phenyl]propoxymethyl]phenyl]pyrrolo[2,1-f][1,2,4]triazin-4-yl]-2-methyl-phenyl]methyl]-1,2,4-oxadiazole-3-carboxamide] | 100 to 500 nM |
| Cc1cc(-c2ncnn3cc(-c4ccc(CCCCc5ccc(NC6CCC(=O)NC6=O)cc5)cc4)cc23)ccc1CNC(=O)c1noc(C(C)(C)C)n1 (stereo not shown) [Example 149, 5-tert-butyl-N-[[4-[6-[4-[4-[4-[(2,6-dioxo-3-piperidyl)amino]phenyl]butyl]phenyl]pyrrolo[2,1-f][1,2,4]triazin-4-yl]-2-methyl-phenyl]methyl]-1,2,4-oxadiazole-3-carboxamide] | 100 to 500 nM |
| Cc1cc(-c2ncnn3cc(-c4ccc(CN5CCC(c6ccc(N[C@@H]7CCC(=O)NC7=O)cc6F)CC5)cc4)cc23)ccc1CNC(=O)c1noc(C(C)(C)C)n1 [Example 26, (R)-5-(tert-butyl)-N-(4-(6-(4-((4-(4-((2,6-dioxopiperidin-3-yl)amino)-2-fluorophenyl)piperidin-1-yl)methyl)phenyl)pyrrolo[2,1-f] [1,2,4]triazin-4-yl)-2-methylbenzyl)-1,2,4-oxadiazole-3-carboxamide] | < 100 nM |
| Cc1ccc(C(=O)NCc2ccc(-c3ncnn4cc(-c5ccc(CN6CCC(c7ccc(NC8CCC(=O)NC8=O)cc7)CC6)cc5)cc34)cc2C)c(F)c1 (stereo not shown) [Example 95, N-[[4-[6-[4-[[4-[4-[(2,6-dioxo-3-piperidyl)amino]phenyl]-1-piperidyl]methyl]phenyl]pyrrolo[2,1-f][1,2,4]triazin-4-yl]-2-methyl-phenyl]methyl]-2-fluoro-4-methyl-benzamide] | < 100 nM |
| Cc1cc(-c2ncnn3cc(-c4ccc(CN5CCC(c6ccc(NC7CCC(=O)NC7=O)cc6)CC5)cc4)cc23)ccc1CNC(=O)c1cnc(C(C)(C)C)o1 (stereo not shown) [Example 85, 2-tert-butyl-N-[[4-[6-[4-[[4-[4-[(2,6-dioxo-3-piperidyl)amino]phenyl]-1-piperidyl]methyl]phenyl]pyrrolo[2,1-f][1,2,4]triazin-4-yl]-2-methyl-phenyl]methyl]oxazole-5-carboxamide] | < 100 nM |
| Cc1cc(-c2ncnn3cc(-c4ccc(CN5CCC(c6ccc(NC7CCC(=O)NC7=O)cc6)CC5)cc4)cc23)ccc1CNC(=O)c1noc(C(C)(C)C)n1 (single isomer, unassigned; isomer 2) [Example 3, 5-tert-butyl-N-[[4-[6-[4-[[4-[4-[(2,6-dioxo-3-piperidyl)amino]phenyl]-1-piperidyl]methyl]phenyl]pyrrolo[2,1-f][1,2,4]triazin-4-yl]-2-methyl-phenyl]methyl]-1,2,4-oxadiazole-3-carboxamide isomer 2] | < 100 nM |
| Cc1cc(-c2ncnn3cc(-c4ccc(OCCN5CCC(c6ccc(NC7CCC(=O)NC7=O)cc6)CC5)cc4)cc23)ccc1CNC(=O)c1noc(C(C)(C)C)n1 (stereo not shown) [Example 105, 5-tert-butyl-N-[[4-[6-[4-[2-[4-[4-[(2,6-dioxo-3-piperidyl)amino]phenyl]-1-piperidyl]ethoxy]phenyl]pyrrolo[2,1-f][1,2,4]triazin-4-yl]-2-methyl-phenyl]methyl]-1,2,4-oxadiazole-3-carboxamide] | < 100 nM |
| Cn1nc(N2CCC(=O)NC2=O)c2ccc(C3CCN(CCc4cc5c(-c6ccc(CNC(=O)c7noc(C(C)(C)C)n7)c(F)c6)ncnn5c4)CC3)cc21 [Example 124] | < 100 nM |
| Cc1cc(-c2ccnn3cc(CCN4CCC(c5ccc(NC6CCC(=O)NC6=O)cc5)CC4)cc23)ccc1CNC(=O)c1noc(C(C)(C)C)n1 (stereo not shown) [Example 155, 5-tert-butyl-N-[[4-[6-[2-[4-[4-[(2,6-dioxo-3-piperidyl)amino]phenyl]-1-piperidyl]ethyl]pyrrolo[1,2-b]pyridazin-4-yl]-2-methyl-phenyl]methyl]-1,2,4-oxadiazole-3-carboxamide] | < 100 nM |

Next, values leading:

| DC50 | SMILES |
| --- | --- |
| < 100 nM | Cc1cc(-c2ncnn3cc(N4CCN(CCCCc5ccc6c(N7CCC(=O)NC7=O)nn(C)c6c5)CC4)cc23)ccc1CNC(=O)c1noc(C(C)(C)C)n1 [Example 297, 5-(tert-butyl)-N-(4-(6-(4-(4-(3-(2,4-dioxotetrahydropyrimidin-1(2H)-yl)-1-methyl-1H-indazol-6-yl)butyl)piperazin-1-yl)pyrrolo[2,1-f][1,2,4]triazin-4-yl)-2-methylbenzyl)-1,2,4-oxadiazole-3-carboxamide] |
| < 100 nM | Cc1cc(-c2ncnn3cc(N4CCN(C(=O)CC(C)(C)CNC(=O)c5ccc(OC6CCC(=O)NC6=O)cc5)CC4)cc23)ccc1CNC(=O)c1noc(C(C)(C)C)n1 (stereo not shown) [Example 192, 5-(tert-butyl)-N-(4-(6-(4-(4-(4-((2,6-dioxopiperidin-3-yl)oxy)benzamido)-3,3-dimethylbutanoyl)piperazin-1-yl)pyrrolo[2,1-f][1,2,4]triazin-4-yl)-2-methylbenzyl)-1,2,4-oxadiazole-3-carboxamide] |
| < 100 nM | Cc1cc(-c2ncnn3cc(-c4cccc(C(C)CN5CCC(c6ccc(C7CCC(=O)NC7=O)cc6)CC5)c4)cc23)ccc1CNC(=O)c1noc(C(C)(C)C)n1 (stereo not shown) [Example 207, 5-(tert-butyl)-N-(4-(6-(3-(1-(4-(4-(2,6-dioxopiperidin-3-yl)phenyl)piperidin-1-yl)propan-2-yl)phenyl)pyrrolo[2,1-f][1,2,4]triazin-4-yl)-2-methylbenzyl)-1,2,4-oxadiazole-3-carboxamide] |
| 100 to 500 nM | Cc1cc(-c2ncnn3cc(N4CCN(C(=O)CCCCNC(=O)c5ccc(OC6CCC(=O)NC6=O)cc5)CC4)cc23)ccc1CNC(=O)c1noc(C(C)(C)C)n1 (stereo not shown) [Example 173, 5-(tert-butyl)-N-(4-(6-(4-(5-(4-((2,6-dioxopiperidin-3-yl)oxy)benzamido)pentanoyl)piperazin-1-yl)pyrrolo[2,1-f][1,2,4]triazin-4-yl)-2-methylbenzyl)-1,2,4-oxadiazole-3-carboxamide] |
| < 100 nM | Cc1cc(-c2ncnn3cc(-c4cnn(CCN5CCC(c6ccc7c(C8CCC(=O)NC8=O)nn(C)c7c6)CC5)c4)cc23)ccc1CNC(=O)c1noc(C(C)(C)C)n1 (stereo not shown) [Example 299, 5-(tert-butyl)-N-(4-(6-(1-(2-(4-(3-(2,6-dioxopiperidin-3-yl)-1-methyl-1H-indazol-6-yl)piperidin-1-yl)ethyl)-1H-pyrazol-4-yl)pyrrolo[2,1-f][1,2,4]triazin-4-yl)-2-methylbenzyl)-1,2,4-oxadiazole-3-carboxamide] |
| < 100 nM | Cc1cc(-c2ccnc3cc(CCCCN4CCC(c5ccc6c(N7CCC(=O)NC7=O)nn(C)c6c5)CC4)nn23)ccc1CNC(=O)c1noc(C(C)(C)C)n1 [Example 300, 5-(tert-butyl)-N-(4-(2-(4-(4-(3-(2,4-dioxotetrahydropyrimidin-1(2H)-yl)-1-methyl-1H-indazol-6-yl)piperidin-1-yl)butyl)pyrazolo[1,5-a]pyrimidin-7-yl)-2-methylbenzyl)-1,2,4-oxadiazole-3-carboxamide] |
| < 100 nM | Cc1cc(-c2ncnn3cc(OCCN4CCC(c5ccc(NC6CCC(=O)NC6=O)cc5)CC4)cc23)ccc1CNC(=O)c1noc(C(C)(C)C)n1 (stereo not shown) [Example 288, 5-(tert-butyl)-N-(4-(6-(2-(4-(4-((2,6-dioxopiperidin-3-yl)amino)phenyl)piperidin-1-yl)ethoxy)pyrrolo[2,1-f][1,2,4]triazin-4-yl)-2-methylbenzyl)-1,2,4-oxadiazole-3-carboxamide] |
